For assay [1], the system named is myocardial infarction (Fisher-344 rats). Put plainly: Echocardiography in rat myocardial infarction model, treatment from 4 weeks post-MI (Example 13). It is filed as in vivo. As to conditions: mean ± SEM; for EF (4 Weeks): 50 μg/kg s.c. twice daily for 4 weeks; for EF (Baseline): ejection fraction at baseline. As for the experimental part:
Myocardial infarction (MI) was induced by permanent ligation of the left coronary artery in female 6-month-old Fisher-344 rats. Animals were randomly assigned to receive placebo (DMSO+propylene glycol) or one of the GHRH-agonists (JI-38, MR-356/P-20356, MR-409/P-27409, all 50 μg/kg), starting 4 weeks post-MI. All treatment was given subcutaneously twice daily for 4 weeks.
Echocardiographic measurements were obtained at baseline, 2 days, 1, 2 and 4 weeks. Echocardiographic assessments were performed in anesthetized rats (2% isoflurane inhalation) using a Vevo-770 echocardiogram (Visual Sonics Inc., Toronto, Ontario, Canada) equipped with a 17.5-MHz transducer. Cardiac dimensions: LV end diastolic (LVEDD), end systolic (LVESD) diameters and fractional shortening (FS) were recorded from M-mode images using averaged measurements from 3 to 5 consecutive cardiac cycles according to the American Society of Echocardiography. Ejection fraction (EF) was calculated from bi-dimensional long-axis parasternal views taken through the infarcted area. All images were analyzed using Vevo 770 3.0.0 software (Visual Sonics Inc., Toronto, Ontario, Canada).

Assay [2] relates to GH release. Put plainly: GH releasing potency in vivo, intravenous administration (Example 14, Table 13). Details: species or system rat. To be noted: i.v.; for Relative potency, 5 min / Relative potency, 15 min: JI-38 = 1; for Serum GH level at selected time after injection (ng/ml), 0 min / Serum GH level at selected time after injection (ng/ml), 5 min / Serum GH level at selected time after injection (ng/ml), 15 min: dose 1 μg/kg, mean ± SEM. The essentials:
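Potency is expressed relative to GHRH(1-29)NH2 and JI-38 (each = 1), via equivalent GHRH(1-29)NH2 dose read from a standard curve. Peptides in 5% mannitol given i.v. or s.c. to anaesthetised male Sprague-Dawley rats (200-250 g); serum GH measured by ELISA at selected times.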

In assay [3] the test system is myocardial infarction (Fischer 344 rats). Description: Echocardiography in rat MI model, treatment from 2 hours post-surgery (Example 14). It is filed as in vivo. To be noted: echocardiographic measurements at day 2 post-MI. The protocol: MI was induced in female 6-month-old Fischer 344 rats by permanent ligation of left ventricular (LV) anterior descending coronary artery. Animals were randomly assigned to receive placebo or one of the following GHRH agonists (MR-356, MR-361, MR-367, MR-403, MR-404, MR-409 and MR-502) starting 2 hours post-surgery. All treatment (50 μg/kg) was given subcutaneously twice daily for 4 weeks. The Institutional Animal Care and Use committee of the University of Miami approved all protocols and experimental procedures.
Longitudinal evaluation of LV remodeling was obtained by echocardiographic measurements between baseline and 4 weeks following MI. Echocardiographic assessments were performed in anesthetized rats (1-2% isoflurane inhalation) using a Vevo-770 echocardiogram (Visual Sonics Inc., Toronto, Ontario, Canada) equipped with 25 MHz transducer. Cardiac dimensions were recorded from M-mode images using averaged measurements from 3 to 5 consecutive cardiac cycles. LV end-diastolic and end-systolic volumes and ejection fraction (EF) were calculated from bi-dimensional long-axis parasternal views taken through the infarcted area. All images were analyzed using Vevo 770 3.0.0 software (Visual Sonics).

Assay [4] deals with GH release. Description: In vivo endocrine activity, GH release after intravenous administration (Table 8). To be noted: rat, i.v. injection.
For assay [5], the system named is nitrosoglutathione reductase-/- (GSNOR-/-) mesenchymal stem cells (MSCs). Put plainly: Tube formation of GSNOR-/- mesenchymal stem cells in Matrigel. In kind it is cell-based, mouse. To be noted: GSNOR-/- MSCs on Matrigel, 6 to 24 hours. As for the experimental part: Bone marrow-derived MSCs isolated from wildtype and GSNOR^−/− mice were grown in endothelial growth media (EGM-2, Lonza Biotech) for a period of 1 week. Cells were harvested by brief trypsinization and plated in 24-well culture dishes (5×10^4 cells/well) pre-coated with 300 μl of Matrigel (BD Biosciences). Cells were incubated in endothelial basal media (Lonza Biotech) supplemented with 0.1% bovine serum albumin, in the presence or absence of GHRH agonist peptides P-20356 and P-27409. After 6 to 24 hours, tube formation potential was quantified in each sample by measuring the number and length of tubes formed using Image J Software (NIH).

Non-standard residues stand in square brackets, D forms with d. Residues, ends and D or L forms follow the SMILES beside them. *: point of attachment. Desaminotyrosyl = O=C(CCc1ccc(O)cc1)*; NMeY = CN[C@@H](Cc1ccc(O)cc1)C(=O)O; Agmatine = N=C(N)NCCCCN*; Nle = CCCC[C@H](N)C(=O)O; Orn = NCCC[C@H](N)C(=O)O; Abu = CC[C@H](N)C(=O)O

In the case of `CCCC[C@H](NC(=O)[C@@H](NC(=O)[C@H](CC(=O)O)NC(=O)[C@H](CCC(N)=O)NC(=O)[C@H](CC(C)C)NC(=O)[C@H](CC(C)C)NC(=O)[C@H](CCCN)NC(=O)[C@H](CCCNC(=N)N)NC(=O)[C@H](C)NC(=O)[C@H](CO)NC(=O)[C@H](CC(C)C)NC(=O)[C@H](CCC(N)=O)NC(=O)[C@H](CC)NC(=O)[C@H](CC(C)C)NC(=O)[C@@H](NC(=O)[C@H](CCCN)NC(=O)[C@H](CCCNC(=N)N)NC(=O)[C@H](Cc1ccc(O)cc1)NC(=O)[C@H](CO)NC(=O)[C@H](CCC(N)=O)NC(=O)[C@@H](NC(=O)[C@H](Cc1ccccc1)NC(=O)[C@@H](NC(=O)[C@H](C)NC(=O)[C@H](CC(=O)O)NC(=O)[C@H](C)NC(=O)CCc1ccc(O)cc1)[C@@H](C)CC)[C@@H](C)O)C(C)C)[C@@H](C)CC)C(=O)N[C@@H](CC(=O)O)C(=O)NCCCCNC(=N)N` [JI-38, [Dat^1, Gln^8, Orn^12,21, Abu^15, Nle^27, Asp^28, Agm^29]hGHRH(1-29)NH2, reference compound] (Desaminotyrosyl-ADAIFTQSYR[Orn]VL[Abu]QLSAR[Orn]LLQDI[Nle]D-Agmatine), in assay [1], the “EF (4 Weeks)” value came out at 47 ± 2.4 % and the “EF (Baseline)” value was determined as 88 ± 1.2%. In the assay with GH release [2], the “Relative potency, 5 min” value turned out to be 1; the “Relative potency, 15 min” value is 1; the “Serum GH level at selected time after injection (ng/ml), 0 min” value stood at 48.0 ± 10.4 ng/mL; the “Serum GH level at selected time after injection (ng/ml), 5 min” value stood at 538 ± 58.3 ng/mL. In addition, the “Serum GH level at selected time after injection (ng/ml), 15 min” value in the assay on GH release [2] came to 198 ± 18.1 ng/mL. The “EF at day 2 post-MI” value in assay [3] is on record as “slightly better preserved”.

On to `CCCC[C@H](NC(=O)[C@@H](NC(=O)[C@H](CC(=O)O)NC(=O)[C@H](CCC(N)=O)NC(=O)[C@H](CC(C)C)NC(=O)[C@H](CC(C)C)NC(=O)[C@H](CCCN)NC(=O)[C@H](CCCNC(=N)N)NC(=O)[C@H](C)NC(=O)[C@H](CO)NC(=O)[C@H](CC(C)C)NC(=O)[C@H](CCC(N)=O)NC(=O)[C@H](CC)NC(=O)[C@H](CC(C)C)NC(=O)[C@@H](NC(=O)[C@H](CCCN)NC(=O)[C@H](CCCNC(=N)N)NC(=O)[C@H](Cc1ccc(O)cc1)NC(=O)[C@H](CO)NC(=O)[C@H](CCC(N)=O)NC(=O)[C@@H](NC(=O)[C@H](Cc1ccccc1)NC(=O)[C@@H](NC(=O)[C@H](C)NC(=O)[C@H](CC(=O)O)NC(=O)[C@H](C)NC(=O)[C@H](Cc1ccc(O)cc1)NC)[C@@H](C)CC)[C@@H](C)O)C(C)C)[C@@H](C)CC)C(=O)N[C@@H](CC(=O)O)C(=O)NCCCCNC(=N)N` [Peptide P-20356, [N—Me-Tyr^1, Gln^8, Orn^12, Abu^15, Orn^21, Nle^27, Asp^28, Agm^29]hGHRH(1-29) NH2] (H-[NMeY]ADAIFTQSYR[Orn]VL[Abu]QLSAR[Orn]LLQDI[Nle]D-Agmatine), for which the “GH releasing potency in vivo relative to JI-38 (=1)” value with GH release [4] (5 min after) came to 1.07. For the same molecule, the “GH releasing potency in vivo relative to JI-38 (=1)” value with GH release [4] (15 min after) worked out at 0.91. In addition, the “GH releasing potency in vivo relative to JI-38 (=1)” value with GH release [4] (30 min after) is listed as 1.22. For the same molecule, the Tube formation entry in assay [5] is recorded as “formed tube-like structures similar to wildtype MSCs”. In addition, in assay [1], the “EF (4 Weeks)” value turned out to be 51 ± 2.7 % and the “EF (Baseline)” value came out at 88 ± 0.6%. In the assay on GH release [2], the “Relative potency, 5 min” value is given as 1.17; the “Relative potency, 15 min” value is listed as 1.26; the “Serum GH level at selected time after injection (ng/ml), 0 min” value was 37.8 ± 5.7 ng/mL; the “Serum GH level at selected time after injection (ng/ml), 5 min” value is 632 ± 110 ng/mL. Further, the “Serum GH level at selected time after injection (ng/ml), 15 min” value with GH release [2] was 250 ± 58.1 ng/mL. The “EF at day 2 post-MI” value in assay [3] is “slightly better preserved”.

Take `CCCC[C@H](NC(=O)[C@@H](NC(=O)[C@H](CC(=O)O)NC(=O)[C@H](CCC(N)=O)NC(=O)[C@H](CC(C)C)NC(=O)[C@H](CC(C)C)NC(=O)[C@H](CCCN)NC(=O)[C@H](CCCNC(=N)N)NC(=O)[C@H](C)NC(=O)[C@H](CO)NC(=O)[C@H](CC(C)C)NC(=O)[C@H](CCC(N)=O)NC(=O)[C@H](CC)NC(=O)[C@H](CC(C)C)NC(=O)[C@@H](NC(=O)[C@H](CCCN)NC(=O)[C@H](CCCNC(=N)N)NC(=O)[C@H](Cc1ccc(O)cc1)NC(=O)[C@H](CO)NC(=O)[C@H](CCC(N)=O)NC(=O)[C@@H](NC(=O)[C@H](Cc1ccccc1)NC(=O)[C@@H](NC(=O)[C@H](C)NC(=O)[C@H](CC(=O)O)NC(=O)[C@@H](C)NC(=O)[C@H](Cc1ccc(O)cc1)NC)[C@@H](C)CC)[C@@H](C)O)C(C)C)[C@@H](C)CC)C(=O)N[C@@H](CC(=O)O)C(=O)NCCCCNC(=N)N` [Peptide P-20361, [N—Me-Tyr^1, D-Ala^2, Gln^8, Orn^12, Abu^15, Orn^21, Nle^27, Asp^28, Agm^29] hGHRH (1-29)NH2] (H-[NMeY][dA]DAIFTQSYR[Orn]VL[Abu]QLSAR[Orn]LLQDI[Nle]D-Agmatine): the “EF at day 2 post-MI” value in assay [3] is listed as “slightly better preserved”.

Consider `CCCC[C@H](NC(=O)[C@@H](NC(=O)[C@H](CC(=O)O)NC(=O)[C@H](CCC(N)=O)NC(=O)[C@H](CC(C)C)NC(=O)[C@H](CC(C)C)NC(=O)[C@H](CCCN)NC(=O)[C@H](CCCNC(=N)N)NC(=O)[C@H](C)NC(=O)[C@H](CO)NC(=O)[C@H](CC(C)C)NC(=O)[C@H](CCC(N)=O)NC(=O)[C@H](CC)NC(=O)[C@H](CC(C)C)NC(=O)[C@@H](NC(=O)[C@H](CCCN)NC(=O)[C@H](CCCNC(=N)N)NC(=O)[C@H](Cc1ccc(O)cc1)NC(=O)[C@H](CO)NC(=O)[C@H](CC(N)=O)NC(=O)[C@@H](NC(=O)[C@H](Cc1ccccc1)NC(=O)[C@@H](NC(=O)[C@H](C)NC(=O)[C@H](CC(=O)O)NC(=O)[C@@H](C)NC(=O)[C@H](Cc1ccc(O)cc1)NC)[C@@H](C)CC)[C@@H](C)O)C(C)C)[C@@H](C)CC)C(=O)N[C@@H](CC(=O)O)C(=O)N[C@@H](CCCNC(=N)N)C(=O)NC` [Peptide P-27409, [N—Me-Tyr^1, D-Ala^2, Orn^12, Abu^15, Orn^21, Nle^27, Asp^28]hGHRH(1-29)NH—CH3] (H-[NMeY][dA]DAIFTNSYR[Orn]VL[Abu]QLSAR[Orn]LLQDI[Nle]DR-NHMe), for which the Tube formation result in assay [5] was “formed tube-like structures similar to wildtype MSCs”. Moreover, in assay [1], the “EF (4 Weeks)” value worked out at 48 ± 2.8 % and the “EF (Baseline)” value is 90 ± 0.8%.
